Article PMC4331153, “In Vitro Inhibitory and Cytotoxic Activity of MFM 501, a Novel Codonopsinine Derivative, against Methicillin-Resistant Staphylococcus aureus Clinical Isolates” (BioMed Research International, 2015)
≈ marks a conversion by molar mass, not a printed value. Read-outs that look alike come from different tables or passages of the source.

Columns and labels:
Assay type in all cases: cell-based
S. aureus isolate N441 = test: MIC determination, broth microdilution, isolate N441; conditions: Staphylococcus aureus
S. aureus isolate U949 = test: MIC determination, broth microdilution, isolate U949; conditions: Staphylococcus aureus
[1] = test system: S. aureus ATCC 25923 (MSSA reference strain); test: MIC determination, broth microdilution, ATCC 25923; conditions: Staphylococcus aureus
[2] = test system: S. aureus ATCC 33591 (MRSA reference strain); test: MIC determination, broth microdilution, ATCC 33591; conditions: Staphylococcus aureus
[3] = test system: S. aureus isolates (MRSA and MSSA); test: MIC determination, S. aureus isolates (MRSA and MSSA); conditions: Staphylococcus aureus, ATCC 25923 / ATCC 33591 / MRSA / MSSA; all four test isolates (N441, U949, ATCC 25923, ATCC 33591), preliminary evaluation

Row | Compound | MIC (S. aureus isolate N441; isolate N441, read-out: MIC) [µg/mL] | MIC (S. aureus isolate U949; isolate U949, read-out: MIC) [µg/mL] | MIC ([1]; ATCC 25923, read-out: MIC) [µg/mL] | MIC ([2]; ATCC 33591, read-out: MIC) [µg/mL] | MIC [3] [µg/mL] | MIC (S. aureus isolate N441) [µg/mL] | MIC (S. aureus isolate U949) [µg/mL] | MIC [1] [µg/mL] | MIC [2] [µg/mL]
1 | CCCCCCC1C(C(=O)OCC)=C(O)C(=O)N1C (stereo not drawn) [16e] | 125 (≈ 464 µM) | 125 (≈ 464 µM) | 250 (≈ 928 µM) | 125 (≈ 464 µM) | 125 to 250 (≈ 464 to 928 µM) | – | – | – | –
2 | CCOC(=O)C1=C(O)C(=O)N(Cc2ccccc2)C1c1ccc(OC)cc1 (stereo not drawn) [26e] | 125 (≈ 340 µM) | 250 (≈ 680 µM) | 250 (≈ 680 µM) | 125 (≈ 340 µM) | 125 to 250 (≈ 340 to 680 µM) | – | – | – | –
3 | C=CCOc1ccc(C2C(C(=O)OCC)=C(O)C(=O)N2C)cc1 (stereo not drawn) [27e] | > 1000 | > 1000 | > 1000 | > 1000 | – | – | – | – | –
4 | Cc1onc(-c2ccccc2)c1C(=O)N[C@@H]1C(=O)N2[C@@H]1SC(C)(C)[C@@H]2C(=O)O [Oxacillin, reference compound] | 500 (≈ 1250 µM) | 500 (≈ 1250 µM) | 0.24 (≈ 0.598 µM) | 250 (≈ 623 µM) | – | – | – | – | –
5 | CN[C@H](CC(C)C)C(=O)N[C@H]1C(=O)N[C@@H](CC(N)=O)C(=O)N[C@H]2C(=O)N[C@H]3C(=O)N[C@H](C(=O)N[C@H](C(=O)O)c4cc(O)cc(O)c4-c4cc3ccc4O)[C@H](O)c3ccc(c(Cl)c3)Oc3cc2cc(c3O[C@@H]2O[C@H](CO)[C@@H](O)[C@H](O)[C@H]2O[C@H]2C[C@](C)(N)[C@H](O)[C@H](C)O2)Oc2ccc(cc2Cl)[C@H]1O [Vancomycin, reference compound] | – | – | – | – | – | 1.56 (≈ 1.08 µM) | 1.56 (≈ 1.08 µM) | 0.78 (≈ 0.538 µM) | 3.13 (≈ 2.16 µM)
6 | CCOC(=O)C1=C(O)C(=O)N(C)C1c1ccc(C)cc1 (stereo not drawn) [compound 19e] | 500 (≈ 1820 µM) | 500 (≈ 1820 µM) | 1000 (≈ 3630 µM) | 500 (≈ 1820 µM) | 500 to 1000 (≈ 1820 to 3630 µM) | – | – | – | –
